Here are results for 17 compounds from patent US20230119479A1, “A HISTONE DEACETYLASE INHIBITOR HAVING A NITROGEN-CONTAINING AROMATIC HETEROCYCLYL GROUP” (SHIONOGI & CO., LTD., priority 2019, published 2023).

pIC50: −log10 of the molar value.

The target in data set [1] is T1, HDAC2 Human recombinant C-terminal FLAG-tag (Homo sapiens, UniProt Q92769).
T1 construct: FLAG (C); purchased BPS Bioscience 50052
Description: Measurement of HDAC2 enzyme inhibitory activity (HTRF). It is filed as biochemical. The following applies: recombinant HDAC2, H3K9ac peptide, 3 hours room temperature; read-out: HDAC2 IC50. In a few lines:
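Compounds were tested at 8 points in 3-fold dilutions from 99 μM final (n=2) against FLAG-tagged HDAC2 with biotinylated H3K9ac (1-21) peptide (0.6 μM as added). The reaction ran 3 h at room temperature in Tris pH 8.0 buffer, then was stopped with SAHA. Deacetylated product was detected by HTRF (Eu-anti-H3K9me0 antibody, streptavidin-XL665) as the 665/615-620 nm ratio.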

Data set [2] relates to HDACs other than HDAC2 (HDAC2 knockout K562 cells). Description: Evaluation of HDAC2 selectivity: H3K9 histone acetylation in HDAC2 knockout K562 cells (AlphaLISA).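 Note: 0% inhibition equals DMSO-treated group.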 It is filed as cell-based. The following applies: Homo sapiens, maximum concentration 83.3 μM, 100% = SAHA-treated group, read-out: maximum inhibition rate (H3K9 histone acetylation). The protocol:
Test Example 3: Evaluation of HDAC2 Selectivity
K562 cells were cultured in RPMI1640 medium (SIGMA, R8758) containing 10% FBS (Hyclone, SH30070.03) and 1% penicillin streptomycin (Nacalai Tesque, 26252-94). CompoZr (registered trademark) Zinc Finger Nuclease (Merck) targeting HDAC2 sequences was transfected into K562 cells by electroporation using Nucleofector (Lonza). The cells after transfection were subjected to limiting dilution, and DNA sequencing was performed on the cell clones in which mutations were detected by the PCR method. Cell clones lacking a base number that was not a multiple of 3 in both alleles were identified, and a single-cell cloning was performed on the cell clones to produce HDAC2 knockout K562 cells. It was confirmed that the expression of HDAC2 was not detected by Western blotting in the prepared cells.
By evaluating the H3K9 histone acetylation-enhancing activity of the test compound using HDAC2 knockout K562 cells, the inhibitory activity against HDACs other than HDAC2 was evaluated.
HDAC2 knockout K562 cells stored in liquid nitrogen were thawed and cultured in RPMI1640 medium (Nacalai Tesque, 30264-85) for 2 to 4 days. Using Echo555 (Beckman Coulter), the test compound was dispensed to the assay plate (Corning, 4513) at 37.5 nL/well, and then HDAC2 knockout K562 cells were seeded to 125 cells/4.5 μL/well, and stirred. At this time, the test compound was treated at 8 points (n=2) in the 3-fold dilution series from the maximum concentration of 83.3 μM. After culturing at 37° C. and 5% CO2 overnight, 1.5 μL/well of Lysis buffer (PerkinElmer, AL009F1) was added, and after incubating at room temperature for 15 minutes, 3 μL/well of Extraction buffer (PerkinElmer, AL009F2) was added and the mixture was incubated for 10 minutes at room temperature. Then, 5× antibody solution (prepared by diluting anti-H3K9 Acceptor beads (PerkinElmer, AL114M) 75-fold with a detection buffer prepared by diluting 10×Cell-Histone Detection buffer (PerkinElmer, AL009F3) 10-fold with ultrapure water, and diluting Biotinylated anti H3 antibody (PerkinElmer, AL118M) diluted 150 times with the detection buffer) was added at 3 μL/well, and after incubating at room temperature for 60 minutes, then 5× donor beads solution (prepared by diluting Streptavidin Donor beads (PerkinElmer, 6760002) 75 fold with the detection buffer) was added at 3 μL/well, and the mixture was incubated again at room temperature for 60 minutes, and then the emission value was measured using PHERAstar (BMG LABTECH) (excitation=680 nm, […]). […] For cell toxicity, cell viability rate was evaluated by the PrestoBlue method.
On the technique in general: In Alpha technology, singlet oxygen from a donor bead excites a nearby acceptor bead.

Data set [3] in a line: Metabolism stability test. The format is in vitro ADME. The following applies: human liver microsomes 0.5 mg protein/mL, 30 minutes, 37° C., NADPH. The protocol:
Using commercially available pooled human hepatic microsomes, a compound of the present invention is reacted for a constant time, and a remaining rate is calculated by comparing a reacted sample and an unreacted sample, thereby, a degree of metabolism in liver is assessed.
A reaction is performed (oxidative reaction) at 37° C. for 0 minute or 30 minutes in the presence of 1 mmol/L NADPH in 0.2 mL of a buffer (50 mmol/L Tris-HCl pH 7.4, 150 mmol/L potassium chloride, 10 mmol/L magnesium chloride) containing 0.5 mg protein/mL of human liver microsomes. After the reaction, 50 μL of the reaction solution is added to 100 μL of a methanol/acetonitrile=1/1 (v/v), mixed and centrifuged at 3000 rpm for 15 minutes. The compound of the present invention in the supernatant is quantified by LC/MS/MS or Solid Phase Extraction (SPE)/MS, and a remaining amount of the compound of the present invention after the reaction is calculated, letting a compound amount at 0 minute reaction time be 100%. The hydrolysis reaction is carried out in the absence of NADPH, and the glucuronidation reaction is carried out in the presence of 5 mmol/L UDP-glucuronic acid instead of NADPH, and the same operation is carried out thereafter. The dilution concentration and dilution solvent are changed as necessary.

Data set [4] in a line: Platelet toxicity test using human blood progenitor cells (WST). The format is cell-based. The following applies: human bone marrow CD34+ progenitor cells, maximum concentration 25 μM. The protocol: Test Example 2: Platelet Toxicity Test Using Human Blood Progenitor Cells
Human bone marrow CD34+ progenitor cells (Lonza, 2M-101B) stored at −80° C. were thawed, spun down at 150 g for 10 minutes at 20° C., and a medium (StemSpan Expansion Supplement, STEM CELL TECHNOLOGIES, ST-02696) to which cytokines (StemSpan SFEM II, STEM CELL TECHNOLOGIES, ST-09655) was added was added to adjust to 2×10^4/well, the mixture was seeded in 12well non-coat dish (Corning, 3513), was incubated for 10 days at 37° C., 5% CO2. After 10 days, the cells were collected and spun down at 150 g for 10 minutes at 20° C., and a medium (StemSpan Expansion Supplement) containing cytokines (StemSpan SFEM II) was added so that the number of cells became 2×10^5 cells/ml. 50 μl of the cell suspension was seeded to each well of a 96-well plate (Corning, 3596) and allowed to stand overnight in an incubator at 37° C., 5% CO2. The next day, 50 μl of the test compound was treated to each well and allowed to stand for 48 hours in the incubator at 37° C., 5% CO2 (n=2). At this time, the test compound dissolved in 100% DMSO was serially diluted with DMSO at a 3-fold ratio, and then a medium containing cytokine was added to adjust the final concentration to 25, 8.33, 2.78, 0.93, 0.31, 0.1 μM. After that, 10 μl of WST (Cell count reagent SF, Nacalai Tesque Inc., 07553-44) was added to each well, and the mixture was allowed to stand in the incubator for 4 hours at 37° C., 5% CO2, and then the multi-label reader 2030 ARVO X4 (PerkinElmer) was used to measure the absorbance. At this time, the absorbance at 450 nm and the absorbance at 620 nm were obtained, and the difference between 450 nm and 620 nm was used as the measured value. The measured values were analyzed by Excel and TIBCO Spotfire, and IC50 values were calculated. At this time, for control (−), the well without cells was set as n=6 for one row, and the average value was calculated, and for control (+), the well in which DMSO was added to the cells so as to have the same concentration as the compound treatment group was set as n=6 for one row, and the average value was calculated and corrected for each plate. For the test compound, the average value of n=2 was used.

T1 sequence (Q92769 whole entry): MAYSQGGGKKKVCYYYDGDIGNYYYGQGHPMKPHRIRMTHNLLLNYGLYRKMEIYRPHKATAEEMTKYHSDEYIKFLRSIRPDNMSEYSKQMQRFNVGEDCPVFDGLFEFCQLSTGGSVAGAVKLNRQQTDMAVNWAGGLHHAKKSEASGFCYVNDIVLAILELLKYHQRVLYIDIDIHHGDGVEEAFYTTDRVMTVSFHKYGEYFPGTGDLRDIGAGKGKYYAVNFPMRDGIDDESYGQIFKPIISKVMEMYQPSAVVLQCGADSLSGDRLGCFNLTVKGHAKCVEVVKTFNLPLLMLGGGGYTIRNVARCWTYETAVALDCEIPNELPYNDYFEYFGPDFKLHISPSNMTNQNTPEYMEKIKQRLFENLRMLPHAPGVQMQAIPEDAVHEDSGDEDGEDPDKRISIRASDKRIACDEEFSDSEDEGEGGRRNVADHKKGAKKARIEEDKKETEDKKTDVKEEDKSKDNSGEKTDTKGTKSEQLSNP

One may read the pIC50 as −log10 of the IC50, conventionally taken in molar units. What is called inhibition is the percentage by which the read-out fell short of the control. As for `Nc1ccc(-n2cccc2)nc1NC(=O)c1cnc(N2CCOCC2)cn1` [Compound I-030], the pIC50 in data set [1] was 6.72. Besides, the inhibition at up to 83.3 µM in data set [2] came to 9%. In data set [3], the “remaining rate after reaction” value is on record as 101%.
In general, IC50 refers to the concentration that gives 50% inhibition. Read a low IC50 as inhibition by little substance. As to `Cn1cc(-c2ccc(N)c(NC(=O)c3cnc(-c4cnn(C)c4)cn3)c2)cn1` [Compound I-036], the pIC50 in data set [1] is 6.80. Further, in data set [2], the inhibition at up to 83.3 µM amounted to 8%. The compound also came in with a 50% inhibitory concentration (IC50) at 48 h in data set [4] of more than 25000 nM.
Turning to `Nc1ccc(-c2ccc(F)nc2)cc1NC(=O)c1cnc(OCC2CC2)cn1` [Compound I-122], the negative-log IC50 (pIC50) in data set [1] was 6.60. For the same compound, in data set [2], the inhibition at up to 83.3 µM was 3%. In data set [4], this compound returned an IC50 at 48 h of more than 25000 nM.
On the same counts, the results for `COc1ccc(C(=O)Nc2cc(-c3ccc(F)nc3)ccc2N)nc1` [Compound I-124] are 6.80, 9% and more than 25000 nM.
The corresponding values for `CCOCCOc1cnc(C(=O)Nc2cc(-c3ccc(F)nc3)ccc2N)cn1` [Compound I-126] are 6.85, 5% and more than 25000 nM.
With `COCCOc1ccc(C(=O)Nc2cc(-c3ccc(F)nc3)ccc2N)nc1` [Compound I-127], the pIC50 in data set [1] is 6.96. Moreover, the inhibition at up to 83.3 µM in data set [2] is 7%. The compound also yielded an IC50 at 48 h in data set [4] of more than 25000 nM.
On the same counts, the results for `Nc1ccc(-c2ccc(F)nc2)cc1NC(=O)c1cnc(OC(F)F)cn1` [Compound I-132] are 6.37, 6% and more than 25000 nM.
The corresponding values for `Cn1cc(-c2ccc(N)c(NC(=O)c3cc4ccccc4cn3)c2)cn1` [Compound I-141] are 6.64, 6% and more than 25000 nM.
On the same counts, the results for `Nc1ccc(-c2ccc(F)nc2)cc1NC(=O)c1ccc(OCF)cn1` [Compound I-142] are 6.74, 8% and more than 25000 nM.
In the case of `Nc1ccc(-c2ccc(F)nc2)cc1NC(=O)c1ccc(C(F)F)cn1` [Compound I-144], in data set [1], the pIC50 is 6.64. Further, in data set [2], the inhibition at up to 83.3 µM is 7%. The same compound gave a half-inhibitory concentration (IC50) at 48 h in data set [4] of more than 25000 nM.
`Nc1ccc(-c2ccc(F)nc2)cc1NC(=O)c1ccc2ocnc2n1` [Compound I-148]: the negative-log IC50 (pIC50) in data set [1] was 6.82. The “remaining rate after reaction” value in data set [3] was 94.9%.
The corresponding values for `Cn1cc(-c2ccc(N)c(NC(=O)c3cnc(OCC(F)F)cn3)c2)cn1` [Compound I-152] are 6.60 and 97.9%.
As for `Nc1ccc(-n2cccc2)nc1NC(=O)c1cnc(C2CC2)cn1` [Compound I-161], the pIC50 in data set [1] is 6.46. Moreover, in data set [2], the inhibition at up to 83.3 µM was determined as 9%. This compound displayed an IC50 at 48 h in data set [4] of more than 25000 nM.
`Cc1cnc(C(=O)Nc2nc(-c3ccccc3)ccc2N)cn1` [Compound I-169]: the pIC50 in data set [1] was 6.44. Moreover, the “remaining rate after reaction” value in data set [3] amounted to 91.4%.
The corresponding values for `CN(C)c1ccc(C(=O)Nc2cc(-c3cnn(C)c3)ccc2N)nc1` [Compound I-177] are 6.77 and 92%.
Consider `CN(C)c1cnc(C(=O)Nc2cc(-c3cnn(C)c3)ccc2N)cn1` [Compound I-179], for which the pIC50 in data set [1] is 7.09. For the same compound, the inhibition at up to 83.3 µM in data set [2] is 9%. Besides, the “remaining rate after reaction” value in data set [3] stood at 93.5%.
For the compound `Cn1cc(-c2cc(C(=O)Nc3cc(-c4ccc(F)nc4)ccc3N)no2)cn1` [Compound I-198], the pIC50 in data set [1] was 6.62. Moreover, in data set [2], the inhibition at up to 83.3 µM worked out at 5%. In data set [4], this compound yielded an IC50 at 48 h of more than 25000 nM.
